Measured values taken from patent US20140206678A1, “INHIBITORS OF MTOR KINASE AS ANTI -VIRAL AGENT” (KADMON CORPORATION, LLC, priority 2011, published 2014).

Columns and labels:
[1] = tested on: γHV68; assay: γHV68 replication in MEFs, TCID50; assay type: cell-based, murine gammaherpesvirus 68; settings: 6 days post infection, rapamycin 20 nM, Torin1 250 nM
[2] = tested on: HCMV proteins IE1, pUL44, pUL99; assay: Western blot of HCMV proteins in infected fibroblasts; assay type: cell-based, human cytomegalovirus; settings: 6 to 96 hpi; rapamycin 20 nM, Torin1 250 nM; 3 PFU/cell
Description: FIG. 2. […] Serum-starved confluent fibroblasts were infected with HCMV at a multiplicity of 3 PFU/cell. […] Control cultures received the vehicle in which Torin1 was dissolved (NT). At 2 hpi cells were harvested, and cell-associated viral DNA was quantified by real-time PCR analysis. Error bars represent the standard errors of the means from two independent experiments performed in duplicate. […] The level of IE1 was determined at 6 hpi by a Western blot assay using an IE1-specific monoclonal antibody. The image is representative of two independent experiments. […] The expression of a GFP marker gene present in the viral genome was monitored at 24 h after infection in the presence or absence of drug.
FIG. 3. […] Cells were harvested at the indicated times, and the accumulation of the indicated proteins was analyzed by Western blotting. […] At the indicated times DNA was isolated, and viral DNA was quantified by qPCR. Equivalent amounts of DNA were analyzed for each sample, and the results are normalized to the level of actin DNA per sample. […] At the indicated times the amount of UL99 RNA was determined by qPCR, and the results are normalized to the amount of actin RNA in each sample. […]
Antibodies to pUL99 have been described previously (Silva, et al. J. Virol. (2003) 77:10594-10605). In addition, accumulation of HCMV DNA was monitored following infection using the methods described above.

[3] = tested on: eIF4F complex and 4EBP1; assay: m7GTP-Sepharose cap-analog binding (eIF4F complex) in HCMV-infected fibroblasts; assay type: cell-based, human; settings: rapamycin 20 nM, Torin1 250 nM
Description: FIG. 4. Rapamycin-resistant mTOR activity is required for 4EBP1 phosphorylation and eIF4F complex integrity during HCMV infection. Serum-starved confluent human fibroblasts were infected with HCMV at a multiplicity of 3 PFU/cell. […] (A) At 48 hpi the phosphorylation status of mTORC1 targets was assessed by Western blot assay by using antibodies to phosphorylated targets (4EBP1-PT^37/46 and rpS6-PS^235/6) and total proteins. Tubulin was assayed as a loading control. (B) Same as above (A) except that cells were harvested at the indicated times. (C and D) After mock infection (M) or infection with HCMV (WT) at a multiplicity of 3 PFU/cell, cultures were harvested at the indicated times. Equivalent amounts of protein from each sample were incubated with m^7GTP-Sepharose, and the isolated protein complexes were analyzed by Western blotting using the indicated antibodies to the eIF4F complex and 4EBP1. In all cases the results are representative of at least two independent experiments. lys, lysate.
The phosphorylation status of 4EBP1 regulates cap-dependent protein translation. Hypophosphorylated 4EBP1 binds to eIF4E and inhibits the formation of the eIF4F complex, while the phosphorylation of 4EBP1 inhibits its interaction with eIF4E. […]

## CCC(=O)N1CCN(c2ccc(-n3c(=O)ccc4cnc5ccc(-c6cnc7ccccc7c6)cc5c43)cc2C(F)(F)F)CC1 [Torin1]
[1]
  γHV68 replication: inhibited
[2]
  accumulation of immediate-early protein IE1: to a limited extent
  accumulation of late protein pUL99: dramatically reduced
[3]
  association of 4EBP1 with m7GTP-Sepharose cap analog: substantially increased association
  association of eIF4G and eIF4A with the cap analog: reduced association
